{
  "source": "patent US12398110B2",
  "about": "“Second generation inhibitors of mitochondrial permeability transition pore with improved plasma stability” (Oregon Health & Science University, priority 2019, dated 2025)",
  "key": {"[1]": {"test_system": "col6a1 zebrafish morphants", "experiment": "Birefringence (muscle structure) in col6a1 zebrafish morphants", "format": "in vivo", "settings": "48 hpf", "experimental": "Muscle structure was assessed by birefringence analysis at 48 hpf, a time when muscle tissue is fully developed and organized muscle fibers start to show anisotropic features. A high percentage of severe birefringence abnormality (>75%, FIG. 6C) was detected in col6a1 morphants, indicating major defects of muscle fiber development and organization.\n(§1) Morpholino antisense injection and treatment. Knock-down of col6a1 gene expression was obtained with a previously published morpholino ^[25] with sequence GAGAGCGGAAGACGAACCTTCATTC (SEQ ID NO: 2; GeneTools, Inc.). A control morpholino with no sequence homology in the zebrafish genome was used in parallel (CCTCTTACCTCAGTTACAATTTATA; SEQ ID NO: 3). Zebrafish eggs from wild-type matings were injected at the 1-2 cell stage with approximately 10 nL of 0.1 mm morpholino solution (corresponding to 4 ng of morpholino) using a WPI pneumatic PicoPump PV820 injector (World Precision Instruments, Inc.). […]\nBirefringence. Muscle structure was monitored by birefringence analysis, taking advantage of muscle anisotropy, which is the ability of muscle fibers to refract polarized light. […] With this set-up, light refracted by muscle fibers (due to the pseudo-crystalline array of sarcomeres) is transmitted and analyzed. Integrated area of birefringence was calculated using ImageJ software. […]"}, "[2]": {"test_system": "col6a1 zebrafish morphants", "experiment": "Spontaneous coiling events in col6a1 zebrafish morphants", "format": "in vivo", "settings": "24 hpf, 3 hours of treatment, 0.1, 1 or 10 μm", "experimental": "Zebrafish embryos were injected with col6a1 morpholino at the 1-cell stage, dechorionated at 20 hpf and treated at 21 hpf with 0.1, 1 or 10 μm of either TR001 or 63. DMSO-treated embryos injected with a scrambled morpholino were used as a control. […] It should be noted that in these protocols, embryos were exposed to drugs for a longer period of time than in the spontaneous coiling experiments. This difference may help to explain why TR001 was as effective at 0.1 μm as it was at 1 and 10 μm.\nMorpholino antisense injection and treatment. Knock-down of col6a1 gene expression was obtained with a previously published morpholino ^[25] with sequence GAGAGCGGAAGACGAACCTTCATTC (SEQ ID NO: 2; GeneTools, Inc.). A control morpholino with no sequence homology in the zebrafish genome was used in parallel (CCTCTTACCTCAGTTACAATTTATA; SEQ ID NO: 3). […]\nMotor activity. The number of spontaneous coiling events performed in 15 seconds by single zebrafish embryos was recorded at 24 hpf by light microscopy. Touch-evoked escape responses were recorded at 48 hpf by observing the ability of zebrafish embryos to escape after a tail-touch with a little tip. […]"}, "[3]": {"test_system": "col6a1 zebrafish morphants", "experiment": "OCR measurement on entire col6a1 morphant zebrafish embryos", "format": "in vivo", "settings": "48 hpf, 10 μm", "excerpt": "To test the effects of both TR001 and 63 on the respiration of col6a1 morphant embryos, we measured the OCR on entire embryos at 48 hpf. […] Moreover, TR001 at a concentration of 10 μm was able to fully restore the maximal respiratory capacity (FIG. 6D, left panel, open diamonds, p<0.001) of col6a1 morphants.\nas §1\nOCR measurement. […] First, basal respiration was measured. Second, respiration due to ATP synthase was measured after addition of 10 μm oligomycin (Merck Millipore-495455). Third, maximal respiration capacity was measured by adding 2 μm of the uncoupler carbonyl cyanide-4-(trifluoromethoxy)phenylhydrazone (FCCP, Sigma-Aldrich, C2920). […]"}, "[4]": {"test_system": "mtPTP", "experiment": "Chemical activator (PhAsO, Diamide, Cu(OP)2, NEM) induced mitochondrial swelling", "format": "biochemical, mouse", "settings": "1.5 μm compound, 10 μm Ca2+ plus PhAsO, Cu(OP)2 or NEM", "experimental": "[…] graphs compound TR001 prevention of chemical activation induced mitochondrial swelling. FIG. 3A-3D) mouse liver mitochondria (0.25 mg/mL) were treated with 10 μM Ca^2+ only (traces a); 10 μm Ca^2+ and after 2 min of incubation with: FIG. 3A) 7 μm PhAsO, FIG. 3B) 2 mm Diamide, FIG. 3C), 7 μm Cu(OP)2, FIG. 3D), 2 mm NEM (traces b-d). In traces c and d additions were as in traces b except that mitochondria were also treated with 1.5 μmCsA (traces c) or TR001 (traces d). Traces are representative of n=4 independent preparations.\nBased on the SAR studies and mouse plasma stability data, we decided to move forward with TR001 for more extensive biological characterization. As noted above, mtPTP is triggered by elevated levels of matrix Ca^2+ and potentiated by oxidative stress, leading to mitochondrial swelling. We therefore next tested the ability of TR001 to protect from oxidizing agent-triggered mtPTP opening. For this purpose, we used known chemical activators of the mtPTP that react with two distinct classes of redox sensitive thiols (—SH) and increase the propensity of mtPTP opening. […]"}},
  "data": [
    {"smiles": "Cc1ccc(Cl)cc1NC(=O)c1cn(-c2ccc(F)c(O)c2)nn1", "note": "[TR001, N-(5-chloro-2-methylphenyl)-1-(4-fluoro-3-hydroxyphenyl)-1H-1,2,3-triazole-4-carboxamide]", "values": [
      {"measurement": "muscle structure by birefringence", "setting": "[1]", "value": "significantly rescued"},
      {"measurement": "spontaneous coiling events", "setting": "[2]", "value": "partially rescued the defect"},
      {"measurement": "maximal respiratory capacity (OCR) of col6a1 morphants", "setting": "[3]", "value": "fully restore"},
      {"measurement": "effect on oxidizing agent-triggered mtPTP opening", "setting": "[4]", "value": "delayed mtPTP opening"}
    ]}
  ]
}
